Data published in US11779597B2, “Method of treating Parkinson's and other neurodegenerative diseases” (Vector Vitale IP LLC, priority 2019, dated 2023).
Marks after values point to notes of the source that are not given here.

Legend:
[1] = test system: dopaminergic neurons in the black substance in rat models of Parkinson's disease (6-OHDA); assay: Apomorphine test / destruction of dopaminergic neurons after prophylactic administration; type: in vivo; conditions: 6-OHDA rat models
Protocol: Methods: Adult mature rodents were used in the study. […] Before prophylactic administration of the experimental drugs, the animals underwent an open field test to assay their general locomotor activity levels and anxiety. The prophylactic course consisted of 10 daily intraperitoneal injections of the drugs (in the case of combination drug, its components were administered at an interval of 2 hours). After the end of prophylactic course, Parkinson's disease was modelled in the animals. […] Ten days after the last (second) apomorphine test, the animals' behavioral responses were assessed in the open field test followed by euthanasia and analysis of functional (metabolic and phenotypic) profiles of phagocytes of different localization. Thus, the study of the functional profile of phagocytes in rat models of Parkinson's disease was performed on day 28 after the end of the course of prophylactic treatment with the experimental drugs. Resident peritoneal macrophages were isolated from sterile cell suspension of peritoneal exudate; enrichment of the suspension was carried out by 2-hour adhesion. Non-adherent and dead cells were separated by centrifugation. Functional characteristics of circulating phagocytes (monocytes and neutrophils) were evaluated in whole blood taken into a tube containing EDTA used as an anticoagulant. Mononuclear and polymorphonuclear phagocytes were analyzed on a flow cytofluorimeter using a gating method. Phagocytes of microglia were isolated using a Percoll density gradient. To assess the phenotypic profile of phagocytes, expression indices of the pan-phagocytic marker CD14 (co-receptor of the bacterial lipopolysaccharide) and the marker of alternative polarization of phagocytes CD206 (mannose receptor 1) were used. […] The hemogram parameters were analyzed on the hematological analyzer Particle counter model PCE 210 (ERMA, Japan) adapted for the study of blood cells of rats and mice.

microglia = assay: Functional profile of microglia in 6-OHDA rat models after prophylactic administration; type: in vivo; conditions: prophylactic i.p.
Protocol: (§1) Methods: Adult mature rodents were used in the study. […] Before prophylactic administration of the experimental drugs, the animals underwent an open field test to assay their general locomotor activity levels and anxiety. The prophylactic course consisted of 10 daily intraperitoneal injections of the drugs (in the case of combination drug, its components were administered at an interval of 2 hours). After the end of prophylactic course, Parkinson's disease was modelled in the animals. […] Ten days after the last (second) apomorphine test, the animals' behavioral responses were assessed in the open field test followed by euthanasia and analysis of functional (metabolic and phenotypic) profiles of phagocytes of different localization. Thus, the study of the functional profile of phagocytes in rat models of Parkinson's disease was performed on day 28 after the end of the course of prophylactic treatment with the experimental drugs. Resident peritoneal macrophages were isolated from sterile cell suspension of peritoneal exudate; enrichment of the suspension was carried out by 2-hour adhesion. Non-adherent and dead cells were separated by centrifugation. Functional characteristics of circulating phagocytes (monocytes and neutrophils) were evaluated in whole blood taken into a tube containing EDTA used as an anticoagulant. Mononuclear and polymorphonuclear phagocytes were analyzed on a flow cytofluorimeter using a gating method. Phagocytes of microglia were isolated using a Percoll density gradient. To assess the phenotypic profile of phagocytes, expression indices of the pan-phagocytic marker CD14 (co-receptor of the bacterial lipopolysaccharide) and the marker of alternative polarization of phagocytes CD206 (mannose receptor 1) were used. To characterize the metabolic profile, oxidative metabolism and phagocytic activity of microglia as well as the pathway of arginine metabolism were studied using flow cytometry and spectrometric methods respectively. FITC-labeled Staphylococcus aureus Wood 46 was used as the object of phagocytosis. The hemogram parameters were analyzed on the hematological analyzer Particle counter model PCE 210 (ERMA, Japan) adapted for the study of blood cells of rats and mice.

peritoneal macrophages [2] = assay: Functional profile of peritoneal macrophages in 6-OHDA rat models after prophylactic administration; type: in vivo; conditions: prophylactic i.p.
Protocol: as §1

peritoneal macrophages [3] = assay: Metabolic profile of nonsensitized mouse peritoneal macrophages in vitro; type: cell-based, mice of c57/B6 line; design: spontaneous production of reactive nitrogen species by PM: dose or concentration left out as unconfirmed
Protocol: Materials and methods: Peritoneal macrophages (PM) were isolated from the peritoneal cavity of male mice of c57/B6 line with an average body weight of 22 g without previous sensibilization. The metabolic profile of phagocytes was characterized by the arginine metabolic pathway (by the levels of arginase activity and NO synthesis measured using photocolorimetric methods), the level of formation of intracellular reactive oxygen species (ROS) by esterases and phagocytic activity measured using flow cytometry as well as the levels of NADH and NADPH oxidase activation, as determined in the NBT test. Duration of treatment of a standardized suspension of nonsensitized macrophages from the peritoneal cavity varied depending on the methodological characteristics of metabolic response. A 90 minute exposure to the drugs according to Kim D K, Pfeifer J. Surg Forum. 1977; 28:85-7 was used to analyze their effects on oxidative metabolism and phagocytic activity. An 18 hour exposure according to Lastra M D, et al., J Trace Elem Med Biol. 2001; 15(1):5-10 was used to analyze the effects on arginine metabolic pathway. To analyze the effects of the drugs under study on the induced (stimulated) metabolic activity of phagocytes, the cells were treated with lipopolysaccharide (LPS) from E. coli (Sigma, USA) according to Haddad J J. Mol Immunol. 2009; 47(2-3):205-14. doi: 10.1016/j.molimm.2009.09.034.

[4] = Body weight in LPS rat models of parkinsonism; type: in vivo; conditions: for body weight: in g (unit assumed)
Protocol: On the 1st day of the experiment, rats were either operated to model hemi-parkinsonism or sham operated. From the 9th to the 18th day of the experiment, the animals were injected either deuterium-depleted water or the test substance, according to their allocation into groups, for 10 days. On the 8th day of the experiment (before initiation of treatment—apomorphine test I) and on the 21st day of the experiment (after the end of administering the test substance —apomorphine test II) the animals underwent an apomorphine test to analyze the development of hemi-parkinsonism which correlates with the number of destroyed dopaminergic neurons. In addition, a follow-up analysis of fecal water content was carried out, i.e., before the start of treatment on the 8th day after the operation, as well as on the 21st (after the end of treatment) and the 28th day (before autopsy). On the 24th day of the experiment, behavioral tests were carried out in all groups. All animals were weighed before autopsy. During autopsy, ⅔ of animals from each group were sacrificed by cervical dislocation and brain and blood samples were collected for further biochemical and immunological tests. ⅓ of the animals were used for further immunohistochemical studies of the brain; for this purpose, under anesthesia, a procedure of fast, controlled and uniform fixation of the whole body of the animal was performed using 4% paraformaldehyde perfused through the heart of the rat to obtain the best preservation of the brain architecture for immunohistochemistry. Gage G J, et al., J Vis Exp. 2012 Jul. 30; (65).

Water content of feces = type: in vivo; conditions: LPS rat models; administration during 10 days
Protocol: Feces were collected on the 8th, 21st and 28th days of the experiment. They were weighed (wet weight mww) and dried in a thermostat at t=60° C. for 24 hours and then weighed again (dry weight mdw). The water content of feces (M) was calculated as the percentage difference between wet and dry weight of feces according to the following formula: M=100−(mdw×100%/mww).
(§2) On the 1st day of the experiment, rats were either operated to model hemi-parkinsonism or sham operated. From the 9th to the 18th day of the experiment, the animals were injected either deuterium-depleted water or the test substance, according to their allocation into groups, for 10 days. On the 8th day of the experiment (before initiation of treatment—apomorphine test I) and on the 21st day of the experiment (after the end of administering the test substance —apomorphine test II) the animals underwent an apomorphine test to analyze the development of hemi-parkinsonism which correlates with the number of destroyed dopaminergic neurons. In addition, a follow-up analysis of fecal water content was carried out, i.e., before the start of treatment on the 8th day after the operation, as well as on the 21st (after the end of treatment) and the 28th day (before autopsy). On the 24th day of the experiment, behavioral tests were carried out in all groups. All animals were weighed before autopsy. […]

[5] = test system: neuronal nitric oxide synthase; assay: Neuronal nitric oxide synthase expression in astrocytes in LPS rat models; type: in vivo; conditions: sham operation and LPS-induced PD; 1.5 mg/kg
Protocol: as §2

## ^64Zn-enriched zinc aspartate [^64Zne-asp]
[1]; prophylactic 10 daily i.p. injections, at completion of the experiment
  Number of animals with 100% destruction of neurons (%): 35%
[1]; prophylactic i.p., apomorphine test
  Rate of rotational movements in animals with 100% destruction of neurons (r/30 min): 224.3 ± 35.9 r/30 min
[1]; prophylactic i.p., versus control 75%
  animals with complete loss of neurons, less than in the control: over 50%
microglia
  level of CD14 expression in microglia: increase
  level of CD206 expression in microglia: increase
  oxidative metabolism / ROS production of microglia versus intact animals: at the level of control intact animals
  oxidative metabolism of microglia, higher than in control rat models of Parkinson's disease: twice
Peritoneal macrophages [2]
  CD206 expression level in CD14+ peritoneal phagocytes: further decrease
  NO synthesis by peritoneal macrophages: prevented an increase
  arginase activity of peritoneal macrophages: absence of any changes
  phagocytosis by peritoneal macrophages: prevented an increase
Peritoneal macrophages [2]; listed as zinc-based drug
  NO synthesis by peritoneal macrophages: decrease
Peritoneal macrophages [3]; 10 μg/ml, 90 min
  ROS generation compared with LPS treatment: more expressive stimulation
Peritoneal macrophages [3]; 18-hour exposure
  NO synthesis by bacterial LPS-stimulated PM: statistically significant reduction
  spontaneous production of reactive nitrogen species by PM: statistically significant inhibition
Peritoneal macrophages [3]; 18-hour treatment
  arginase activity of PM: multidirectional weak effect
Peritoneal macrophages [3]; 90 min exposure
  phagocytic activity of nonsensitized PM: did not have a significant effect
Peritoneal macrophages [3]; 90 min treatment
  spontaneous and LPS-stimulated ROS production by macrophages: moderate stimulating effect
  spontaneous or induced activation of NADH and NADPH oxidases (NBT test): did not have a statistically significant effect
[4]; 1st day
  body weight: 193.78 ± 22.21
[4]; 28th day
  body weight: 219.8 ± 18.31
[4]; between 1st and 28th day
  body weight changes, %: 13* %
[4]; day 28 versus day 1 and versus LPS + deuterium-depleted water, listed as 64Zn-asp
  body weight of LPS rat models (in words): statistically significant increase
Water content of feces
  water content of feces: did not cause any significant changes
[5]
  expression of nitric oxide synthase enzyme in astrocytes: increase
